Here are results for 4 compounds from paper PMC4032195 (ACS Chemical Biology, 2014).

Experiment [1] addresses BRDT-1 (Homo sapiens, UniProt Q58F21). The experiment is described as follows: biochemical. Format: binding. Particulars: IC50 (μM) BRDT-1, Alpha Screen, KAc-histone H4 peptide (K5/8/12/16Ac).
In experiment [2] the test system is VEGFR-1. Particulars: read-out: IC50 VEGFR-1; cited from earlier work.
The subject of experiment [3] is VEGFR-2. Conditions: read-out: IC50 VEGFR-2; cited from earlier work.
The target of experiment [4] is BRD4-1 (Homo sapiens, UniProt O60885). The experiment is described as follows: biochemical. Format: binding. Particulars: IC50 (μM) BRD4-1, Alpha Screen, KAc-histone H4 peptide (K5/8/12/16Ac).
For experiment [5], the system named is BET bromodomains. Particulars: cited from earlier work.

Where only a bound is given, the exact number is not on record here.

Consider `COc1cc(Nc2nccc(Nc3ccc4c(C)n[nH]c4c3)n2)cc(OC)c1OC` [GW612286X], for which inhibition in experiment [1] was half-maximal at 7.6 µM (IC50).

As to `Cc1ccc(Nc2nccc(N(C)c3ccc4c(C)n(C)nc4c3)n2)cc1S(N)(=O)=O` [Pazopanib], the IC50 is 0.01 µM in experiment [2] and […] in experiment [3]. `COc1cc(Nc2ncc(F)c(Nc3ccc4c(n3)N(COP(=O)(O)O)C(=O)C(C)(C)O4)n2)cc(OC)c1OC` [Fostamatinib]: the IC50 in experiment [4] and in experiment [1] was > 20 µM each time.

In the case of `O=c1cc(N2CCOCC2)oc2c(-c3ccccc3)cccc12` [LY294002], the “inhibition of BET bromodomains” value in experiment [5] is “modest inhibitor of BET bromodomains”.
